Data reported in publication PMC3784060 (Cancer Chemotherapy and Pharmacology, 2013).
Several values for one entry are separate records, joined by “and”; a condition that tells them apart may be missing. Identical values can stand only once.

Tests used:
[1] = tested on: relapsed/refractory AML and ALL; assay: phase II study in acute leukemia: response, blast/WBC reduction, time to progression; type: in vivo, human; details: for median WBC count: pretreatment 2,650
Description: Each cycle lasted 21 days. Patient could continue treatment on the study in the absence of disease progression or unacceptable toxicity. The next cycle of therapy could start if non-hematologic toxicity from previous cycle recovered to ≤grade 1, and dose delay of up to 3 weeks was allowed for recovery. Permanent dose reduction was required for any ≥grade 3 clinically significant non-hematologic adverse event (70 mg/m^2 → 50 mg/m^2; 50 mg/m^2 → 40 mg/m^2; 40 mg/m^2 → 30 mg/m^2; 30 mg/m^2 → discontinue). To allow for continued treatment of subjects whose cytopenias were due to leukemia and not due to drug toxicity, subsequent cycles of treatment were allowed if absolute neutrophil count (ANC) ≥0.5 × 10^9/L or for ANC <0.5 × 10^9/L but no more than 20 % below the baseline pretreatment levels and platelet count ≥20 × 10^9/L or platelets <20 × 10^9/L but no more than 20 % below the baseline pretreatment levels. Anti-emetic prophylaxis including serotonin-receptor antagonist, metoclopramide, or prochloperazine with or without dexamethasone was allowed. […] Dexamethasone 20 mg IV was given early if symptoms of cytokine release syndrome were observed.
Response was assessed by bone marrow (BM) examination on day 21 of cycles 1 and 2, and every 6 weeks thereafter until complete remission or progressive disease (PD). Response was determined according to the revised recommendations of the International Working Group (IWG) for AML [33]. Toxicities were graded according to the National Cancer Institute Common Terminology Criteria for Adverse Events (NCI CTCAE), version 3.0 (http://ctep.cancer.gov/protocolDevelopment/electronic_applications/docs/ctcaev3.pdf). Hematologic and chemistry profiles were monitored on day 1 and 2 of each cycle or until resolution of acute toxicities and subsequently at least once a week or more frequently depending on the individual patient’s needs.
The primary efficacy endpoint of the study was the ORR, including complete remission (CR), CR with incomplete count recovery (CRi), and partial remission.

[2] = tested on: primary AML cells (AML 08); assay: Annexin V/PI apoptosis assay, primary AML cells; type: cell-based, human; details: 2, 20, and 200 nM
Description: Primary leukemia cells for in vitro studies were isolated from BM or PB obtained from AML or ALL patients enrolled on a separate University of Maryland, Baltimore, IRB-approved protocol for tissue collection and not treated on this clinical study. The cells were isolated by gradient centrifugation using LSM (Mediatech) according to the manufacturer’s protocol. Cells were used either fresh or after viable freezing (FBS/10 % DMSO). Primary leukemia cells were cultured in RPMI 1640 (Invitrogen, Grand Island, NY, USA) supplemented with 15 % heat-inactivated FBS (HyClone Laboratories Inc., Red Bank, NJ, USA) and 200 mM L-Glutamine (Invitrogen). Leukemia cell lines HL-60 (AML), MOLT-4 (T cell ALL), and K562 (chronic myelogenous leukemia [CML] in erythroid blast transformation) were purchased from American Type Culture Collection (ATCC, Manassas, VA, USA) and cultured in RPMI 1640 (Invitrogen) supplemented with 10 % heat-inactivated FBS (HyClone Laboratories Inc.) and 200 mM L-Glutamine (Invitrogen).

[3] = tested on: Mcl-1, PARP cleavage in HL-60, MOLT-4, K562; assay: Western blot, leukemia cell lines in vitro; type: cell-based, human; details: most prominent with 6 and 24 h exposure
Description: Primary leukemia cells for in vitro studies were isolated from BM or PB obtained from AML or ALL patients enrolled on a separate University of Maryland, Baltimore, IRB-approved protocol for tissue collection and not treated on this clinical study. The cells were isolated by gradient centrifugation using LSM (Mediatech) according to the manufacturer’s protocol. Cells were used either fresh or after viable freezing (FBS/10 % DMSO). Primary leukemia cells were cultured in RPMI 1640 (Invitrogen, Grand Island, NY, USA) supplemented with 15 % heat-inactivated FBS (HyClone Laboratories Inc., Red Bank, NJ, USA) and 200 mM L-Glutamine (Invitrogen). […]
For Western blot analysis, leukemia cell pellets (primary leukemia cells, HL-60, MOLT-4, K562) were washed with PBS and lysed with RIPA buffer (Sigma-Aldrich, St. Louis, MO, USA) supplemented with Complete Mini™ protease inhibitor and PHOStop™ phosphatase inhibitors (Roche). […] Blots were washed three times, and the signal was detected with Amersham™ ECL™ detection systems (GE Healthcare, Pittsburgh, PA, USA). […] The Western blot signals were measured by densitometry using ImageJ 1.45I software (NIH, Bethesda, USA).

[4] = plasma pharmacokinetics (HPLC-MS/MS, population PK model); details: human, intravenous
Description: Blood samples for PK evaluations (3 mL each) were collected into prechilled K2 EDTA tubes at 0, 0.25–0.5, 1–2, and 4 h after the end of the 2-h infusion on day 1 of cycles 1, 2, and 3. Samples were kept on ice and centrifuged within 1 h of collection at 2,700g/4 °C for 10 min; separated plasma was immediately frozen on dry ice and then stored at −20 °C or below.
A 2-compartment PPK model was developed with data from two phase I studies in solid tumors [31, 32]. The model fits were conducted using NONMEM V, level 1.1 (GloboMax LLC), and a first-order conditional estimation method was employed for all model runs. The model included between-subject variability on clearance and volume of distribution, and mixed error terms.

[5] = 13 patients with circulating blasts, within 1–8 days of first dose
[6] = AML patients, all treated subjects
[7] = patients with circulating blasts

Cmax [4]: > 4 µM
concentration at 2 h ([4]; 40 mg/m^2): 1010 ng/mL
concentration at 2.25 h ([4]; 40 mg/m^2): 1100 ng/mL
concentration at 4 h ([4]; 40 mg/m^2): 118 ng/mL
concentration at 6 h ([4]; 40 mg/m^2): 42.4 ng/mL
AUC ([4]; 50 mg/m^2): 3560 ng·h/mL
concentration at 2.25 h ([4]; 50 mg/m^2): 707 ng/mL
concentration at 2.5 h ([4]; 50 mg/m^2): 354 ng/mL
concentration at 3 h ([4]; 50 mg/m^2): 195 ng/mL
concentration at 4 h ([4]; 50 mg/m^2): 139 ng/mL
concentration at 6 h ([4]; 50 mg/m^2): 36.7 ng/mL
AUC ([4]; 70 mg/m^2): 4980 ng·h/mL
concentration at 2 h ([4]; 70 mg/m^2): 1700 ng/mL
concentration at 2.25 h ([4]; 70 mg/m^2): 724 ng/mL
concentration at 2.5 h ([4]; 70 mg/m^2): 457 ng/mL
concentration at 3 h ([4]; 70 mg/m^2): 307 ng/mL
concentration at 4 h ([4]; 70 mg/m^2): 125 ng/mL
concentration at 6 h ([4]; 70 mg/m^2): 52.2 ng/mL
SMILES: CCc1cnn2c(NCc3ccc[n+]([O-])c3)cc(N3CCCC[C@H]3CCO)nc12 [Dinaciclib]
objective responses by IWG criteria ([1]; 50 mg/m^2 2-h infusion every 21 days, 20 patients): No objective responses
average reduction in BM blasts ([1]; 8 of 13 patients with follow-up BM evaluations): 36%
patients with >50 % decrease in absolute blast count (ABC) [1, 5]: 77%
patients with >80 % decrease in absolute blast count (ABC) [1, 5]: 46%
TTP ([1]; ALL patients): 1 to 8.14 weeks
median TTP ([1]; AML patients included in the initial randomization): 5.14 weeks
Beta Posterior Mean (Bayes estimate of the response rate) [1, 6]: 0.071
Difference in observed response rate (SCH727965 - Mylotarg) [1, 6]: -12.500%
Number of Non-responders [1, 6]: 12
Number of Responders [1, 6]: 0
Posterior Probability (This treatment is better) [1, 6]: 0.200
Observed Response Rate (%) ([1]; AML patients, all treated subjects, frequentist approach): 0.000%
Median time to progression, Estimate ([1]; all treated AML patients): 5.14 weeks
Number of Events (progression) ([1]; all treated AML patients): 10
median WBC count ([1]; day 2): 1,045 × 10^6/L
median WBC count ([1]; day 8): 1,350 × 10^6/L
median duration of the WBC nadir ([1]; in vivo): 5 days
patients with temporary decrease in PB and/or marrow blasts ([1]; in vivo): 60%
duration of ABC nadir [1, 7]: 7 days
median time to ABC nadir [1, 7]: 3 days
median ABC nadir ([1]; patients with circulating blasts, pre-treatment 1,130): 2e+08 L⁻¹
TTP ([1]; two AML patients who crossed over from GO, individual values): 7.86 weeks and 9.14 weeks
apoptosis (AnnexinV/PI flow cytometry) [2]: induced apoptosis in primary AML cells (AML 08) in a time- and concentration-dependent manner
Mcl-1 expression and PARP cleavage [3]: down-regulates the expression of the anti-apoptotic protein Mcl-1 independently of caspases and induces PARP cleavage
